Test results taken from patent US12545639B2, “3-substituted phenylamidine compounds, preparation and use thereof” (PI INDUSTRIES LTD., priority 2019, dated 2026).

What was measured:
Rhizoctonia solani = Rhizoctonia solani (rice sheath blight/potato black scurf) in vitro test, radial growth on potato dextrose agar; type: cell-based; settings: 168 h, 300 ppm in potato dextrose agar, 25° C., 60% relative humidity, seven days, read-out: control compared to the untreated check (radial growth)
Pyricularia oryzae = experiment: microbe, parasite or virus in culture; type: cell-based; settings: 168 h, read-out: control compared to the untreated check (radial growth)
Alternaria solani = Alternaria solani (early blight of tomato/potato) in vitro test, radial growth on potato dextrose agar; type: cell-based; settings: 168 h, 300 ppm in potato dextrose agar, 25° C., 60% relative humidity, seven days, read-out: control compared to the untreated check (radial growth)
Botrytis cinerea = Botrytis cinerea (gray mold) in vitro test, radial growth on potato dextrose agar; type: cell-based; settings: 168 h, 300 ppm in potato dextrose agar, 22° C., 90% relative humidity, seven days, read-out: control compared to the untreated check (radial growth)
Phakopsora pachyrhizi = Phakopsora pachyrhizi test in soybean, preventive, in vivo on plants; settings: in Glycine max, read-out: Efficacy (% control), disease severity compared to the untreated check

SMILES	inhibition of growth at 300 ppm (Rhizoctonia solani) [%]	inhibition of growth at 300 ppm (Pyricularia oryzae) [%]	inhibition of growth at 300 ppm (Alternaria solani) [%]	inhibition of growth at 300 ppm (Botrytis cinerea) [%]	pest or weed control at 500 ppm (Phakopsora pachyrhizi) [%]
CCN(C)C=Nc1cc(F)cc(Cc2cccc(OC(F)(F)F)c2)c1C [Compound 173, N-ethyl-N′-(5-fluoro-2-methyl-3-(3-(trifluoromethoxy)benzyl)phenyl)-N-methylformimidamide]	≥ 70	≥ 70	≥ 70	≥ 70	
CCN(C)C=Nc1cc(F)cc(Cc2ccccc2OC(F)(F)F)c1C [Compound 170, N-ethyl-N′-(5-fluoro-2-methyl-3-(2-(trifluoromethoxy)benzyl)phenyl)-N-methylformimidamide]	≥ 70	≥ 70	≥ 70	≥ 70	
CCN(C)C=Nc1cc(Cl)cc(Nc2ccc3ncsc3c2)c1C [Compound 242, N′-(3-(benzo[d]thiazol-6-ylamino)-5-chloro-2-methylphenyl)-N-ethyl-N-methylformimidamide]	≥ 70	≥ 70	≥ 70		≥ 70
CCN(C)C=Nc1cc(Cl)cc(Nc2ccccc2)c1C [Compound 155, N′-(5-chloro-2-methyl-3-(phenylamino)phenyl)-N-ethyl-N-methylformimidamide]		≥ 70	≥ 70		≥ 70
CCc1cccc(N(C)c2cc(F)cc(N=CN(C)CC)c2C)n1 [Compound 239, N-ethyl-N′-(3-((6-ethylpyridin-2-yl)(methyl)amino)-5-fluoro-2-methylphenyl)-N-methylformimidamide]	≥ 70		≥ 70		≥ 70
CCN(C)C=Nc1cc(F)cc(N(C)c2ncccc2C(F)(F)F)c1C [Compound 153, N-ethyl-N′-(5-fluoro-2-methyl-3-(methyl(3-(trifluoromethyl)pyridin-2-yl)amino)phenyl)-N-methylformimidamide]			≥ 70		≥ 70
CCN(C)C=Nc1cc(OC)cc(Cc2ccccc2)c1C [Compound 298, N′-(3-benzyl-5-methoxy-2-methylphenyl)-N-ethyl-N-methylformimidamide]	≥ 70	≥ 70	≥ 70		≥ 70
CCN(C)C=Nc1cc(Cl)cc(Cc2ccccc2C#N)c1C [Compound 104, N′-(5-chloro-3-(2-cyanobenzyl)-2-methylphenyl)-N-ethyl-N-methylformimidamide]	≥ 70	≥ 70	≥ 70		≥ 70
CCN(C)C=Nc1cc(C)cc(N(C)c2cc(Cl)ccc2C)c1Cl [Compound 110, N′-(2-chloro-3-((5-chloro-2-methylphenyl)(methyl)amino)-5-methylphenyl)-N-ethyl-N-methylformimidamide]			≥ 70	≥ 70	
CCN(C)C=Nc1cc(C)cc(Nc2ccccn2)c1Cl [Compound 85, N′-(2-chloro-5-methyl-3-(pyridin-2-ylamino)phenyl)-N-ethyl-N-methylformimidamide]			≥ 70		≥ 70
CCN(C)C=Nc1cc(C)cc(N(C)c2ccc(F)c(OC)c2)c1Cl [Compound 288, N′-(2-chloro-3-((4-fluoro-3-methoxyphenyl)(methyl)amino)-5-methylphenyl)-N-ethyl-N-methylformimidamide]		≥ 70	≥ 70	≥ 70	
CCN(C)C=Nc1cc(Cl)cc(Cc2cccc(C(F)(F)F)c2)c1C [Compound 127, N′-(5-chloro-2-methyl-3-(3-(trifluoromethyl)benzyl)phenyl)-N-ethyl-N-methylformimidamide]	≥ 70	≥ 70	≥ 70		≥ 70
CCN(C)C=Nc1cc(F)cc(Cc2ccc(F)c(C(F)(F)F)c2)c1C [Compound 234, N-ethyl-N′-(5-fluoro-3-(4-fluoro-3-(trifluoromethyl)benzyl)-2-methylphenyl)-N-methylformimidamide]	≥ 70	≥ 70	≥ 70		≥ 70
CCN(C)C=Nc1cc(C#N)cc(Cc2ccc(F)cc2)c1C [Compound 310, N′-(5-cyano-3-(4-fluorobenzyl)-2-methylphenyl)-N-ethyl-N-methylformimidamide]		≥ 70	≥ 70	≥ 70	
CCN(C)C=Nc1cc(C)cc(N(C)c2cccc(C(C)C)c2)c1Cl [Compound 63, N′-(2-chloro-3-((3-isopropylphenyl)(methyl)amino)-5-methylphenyl)-N-ethyl-N-methylformimidamide]			≥ 70	≥ 70	
CCN(C)C=Nc1cc(C#N)cc(Cc2ccc(Cl)cc2)c1C [Compound 311, N′-(3-(4-chlorobenzyl)-5-cyano-2-methylphenyl)-N-ethyl-N-methylformimidamide]	≥ 70	≥ 70		≥ 70	
CCN(C)C=Nc1cc(C)cc(Cc2cccc(C(F)(F)F)c2)c1Cl [Compound 53, N′-(2-chloro-5-methyl-3-(3-(trifluoromethyl)benzyl)phenyl)-N-ethyl-N-methylformimidamide]			≥ 70		≥ 70
CCN(C)C=Nc1cc(C)cc(Cc2cccnc2)c1Cl [Compound 66, N′-(2-chloro-5-methyl-3-(pyridin-3-ylmethyl)phenyl)-N-ethyl-N-methylformimidamide]		≥ 70	≥ 70		≥ 70
CCN(C)C=Nc1cc(F)cc(N(C)c2cc(F)cc(Cl)c2)c1C [Compound 106, N′-(3-((3-chloro-5-fluorophenyl)(methyl)amino)-5-fluoro-2-methylphenyl)-N-ethyl-N-methylformimidamide]			≥ 70	≥ 70	
CCN(C)C=Nc1cc(C)cc(Cc2cccc(OC)c2)c1Cl [Compound 28, N′-(2-chloro-3-(3-methoxybenzyl)-5-methylphenyl)-N-ethyl-N-methylformimidamide]	≥ 70	≥ 70	≥ 70		≥ 70
CCN(C)C=Nc1cc(C)cc(N(C)c2ncccc2C(F)(F)F)c1Cl [Compound 157, N′-(2-chloro-5-methyl-3-(methyl(3-(trifluoromethyl)pyridin-2-yl)amino)phenyl)-N-ethyl-N-methylformimidamide]		≥ 70	≥ 70		≥ 70
CCN(C)C=Nc1cc(C)cc(Nc2cc(C)cc(F)c2)c1Cl [Compound 111, N′-(2-chloro-3-((3-fluoro-5-methylphenyl)amino)-5-methylphenyl)-N-ethyl-N-methylformimidamide]		≥ 70			≥ 70
CCN(C)C=Nc1cc(C)cc(Nc2ncccc2C)c1Cl [Compound 86, N′-(2-chloro-5-methyl-3-((3-methylpyridin-2-yl)amino)phenyl)-N-ethyl-N-methylformimidamide]		≥ 70	≥ 70		≥ 70
CCN(C)C=Nc1cc(F)cc(Nc2ccccc2)c1C [Compound 8, N-ethyl-N′-(5-fluoro-2-methyl-3-(phenylamino)phenyl)-N-methylformimidamide]		≥ 70	≥ 70	≥ 70	
CCN(C)C=Nc1cc(C)cc(NCc2cnc(C)cn2)c1Cl [Compound 196, N′-(2-chloro-5-methyl-3-(((5-methylpyrazin-2-yl)methyl)amino)phenyl)-N-ethyl-N-methylformimidamide]					≥ 70
CCN(C)C=Nc1cc(C)cc(Cc2ccc(F)cc2Br)c1Cl [Compound 215, N′-(3-(2-bromo-4-fluorobenzyl)-2-chloro-5-methylphenyl)-N-ethyl-N-methylformimidamide]					≥ 70
CCN(C)C=Nc1cc(Cl)cc(Nc2cnccn2)c1C [Compound 211, N′-(5-chloro-2-methyl-3-(pyrazin-2-ylamino)phenyl)-N-ethyl-N-methylformimidamide]					≥ 70
CCc1cccc(N(C)c2cc(Cl)cc(N=CN(C)CC)c2C)n1 [Compound 253, N′-(5-chloro-3-((6-ethylpyridin-2-yl)(methyl)amino)-2-methylphenyl)-N-ethyl-N-methylformimidamide]	≥ 70	≥ 70	≥ 70		≥ 70
CCN(C)C=Nc1cc(C)cc(N(C)c2ccc(F)cc2)c1Cl [Compound 69, N′-(2-chloro-3-((4-fluorophenyl)(methyl)amino)-5-methylphenyl)-N-ethyl-N-methylformimidamide]	≥ 70	≥ 70	≥ 70		≥ 70
CCN(C)C=Nc1cc(C)cc(Cc2ccc(F)c(C(F)(F)F)c2)c1Cl [Compound 218, N′-(2-chloro-3-(4-fluoro-3-(trifluoromethyl)benzyl)-5-methylphenyl)-N-ethyl-N-methylformimidamide]	≥ 70	≥ 70	≥ 70		≥ 70
